Experimental findings from article PMC11471635, “Linkage of alternative exon assembly in Drosophila TrpA1 transcripts” (Molecules and Cells, 2024) are described below.

Assay in all cases: two-electrode voltage clamp, Xenopus oocytes
Holding throughout (type): cell-based

In one test the target is T1, agTRPA1(B) (Anopheles gambiae, UniProt B3G3I7).
T1 construct: isoform with TRPA1(B)-type N-terminus and exon6a-encoded BAT; cRNA-injected Xenopus laevis oocytes
T1 sequence (B3G3I7 1-1248): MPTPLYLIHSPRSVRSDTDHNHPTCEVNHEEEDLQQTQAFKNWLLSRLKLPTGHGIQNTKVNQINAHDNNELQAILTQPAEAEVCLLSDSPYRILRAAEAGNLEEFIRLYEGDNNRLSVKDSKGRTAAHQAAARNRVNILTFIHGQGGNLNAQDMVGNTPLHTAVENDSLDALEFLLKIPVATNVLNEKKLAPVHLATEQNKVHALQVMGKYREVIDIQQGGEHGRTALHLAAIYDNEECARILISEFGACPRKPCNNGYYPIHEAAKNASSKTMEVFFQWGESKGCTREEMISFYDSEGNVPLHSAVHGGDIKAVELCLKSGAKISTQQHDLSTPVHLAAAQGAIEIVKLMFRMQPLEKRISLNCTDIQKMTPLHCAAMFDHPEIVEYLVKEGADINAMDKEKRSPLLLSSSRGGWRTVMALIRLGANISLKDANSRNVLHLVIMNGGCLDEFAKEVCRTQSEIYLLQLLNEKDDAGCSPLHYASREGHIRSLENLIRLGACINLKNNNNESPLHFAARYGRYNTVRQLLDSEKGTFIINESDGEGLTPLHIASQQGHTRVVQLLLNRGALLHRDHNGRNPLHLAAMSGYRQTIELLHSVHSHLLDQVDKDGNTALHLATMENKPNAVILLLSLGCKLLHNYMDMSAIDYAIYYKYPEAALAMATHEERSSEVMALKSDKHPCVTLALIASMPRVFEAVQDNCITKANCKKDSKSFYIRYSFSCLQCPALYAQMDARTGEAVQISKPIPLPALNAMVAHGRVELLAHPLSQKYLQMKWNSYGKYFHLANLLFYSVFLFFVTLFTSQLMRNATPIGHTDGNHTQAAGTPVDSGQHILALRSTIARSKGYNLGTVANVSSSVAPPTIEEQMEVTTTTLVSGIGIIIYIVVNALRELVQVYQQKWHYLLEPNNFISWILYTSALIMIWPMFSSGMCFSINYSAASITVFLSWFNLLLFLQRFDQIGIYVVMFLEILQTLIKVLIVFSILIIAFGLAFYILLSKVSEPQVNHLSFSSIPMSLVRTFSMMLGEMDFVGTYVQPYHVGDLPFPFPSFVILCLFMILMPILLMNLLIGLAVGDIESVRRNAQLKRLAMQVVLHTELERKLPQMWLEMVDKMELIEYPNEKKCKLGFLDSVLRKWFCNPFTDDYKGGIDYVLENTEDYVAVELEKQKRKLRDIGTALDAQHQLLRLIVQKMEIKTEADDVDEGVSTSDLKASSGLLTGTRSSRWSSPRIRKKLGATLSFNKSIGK

The next test concerns the target T2, humTRPA1 (Homo sapiens, UniProt O75762).
T2 construct: gene TRPA1; human TRPA1; cRNA-injected Xenopus laevis oocytes (electrophysiology as for insect TRPA1s)

Test [1] addresses T3, TRPA1(A) (TRPA1(A)-exon10a) (Drosophila melanogaster, UniProt Q7Z020).
T3 construct: full-length isoform with exon1a-encoded N-terminus and exon10a-encoded BAT domain; cRNA-injected Xenopus laevis oocytes
T3 sequence (Q7Z020 1-1197): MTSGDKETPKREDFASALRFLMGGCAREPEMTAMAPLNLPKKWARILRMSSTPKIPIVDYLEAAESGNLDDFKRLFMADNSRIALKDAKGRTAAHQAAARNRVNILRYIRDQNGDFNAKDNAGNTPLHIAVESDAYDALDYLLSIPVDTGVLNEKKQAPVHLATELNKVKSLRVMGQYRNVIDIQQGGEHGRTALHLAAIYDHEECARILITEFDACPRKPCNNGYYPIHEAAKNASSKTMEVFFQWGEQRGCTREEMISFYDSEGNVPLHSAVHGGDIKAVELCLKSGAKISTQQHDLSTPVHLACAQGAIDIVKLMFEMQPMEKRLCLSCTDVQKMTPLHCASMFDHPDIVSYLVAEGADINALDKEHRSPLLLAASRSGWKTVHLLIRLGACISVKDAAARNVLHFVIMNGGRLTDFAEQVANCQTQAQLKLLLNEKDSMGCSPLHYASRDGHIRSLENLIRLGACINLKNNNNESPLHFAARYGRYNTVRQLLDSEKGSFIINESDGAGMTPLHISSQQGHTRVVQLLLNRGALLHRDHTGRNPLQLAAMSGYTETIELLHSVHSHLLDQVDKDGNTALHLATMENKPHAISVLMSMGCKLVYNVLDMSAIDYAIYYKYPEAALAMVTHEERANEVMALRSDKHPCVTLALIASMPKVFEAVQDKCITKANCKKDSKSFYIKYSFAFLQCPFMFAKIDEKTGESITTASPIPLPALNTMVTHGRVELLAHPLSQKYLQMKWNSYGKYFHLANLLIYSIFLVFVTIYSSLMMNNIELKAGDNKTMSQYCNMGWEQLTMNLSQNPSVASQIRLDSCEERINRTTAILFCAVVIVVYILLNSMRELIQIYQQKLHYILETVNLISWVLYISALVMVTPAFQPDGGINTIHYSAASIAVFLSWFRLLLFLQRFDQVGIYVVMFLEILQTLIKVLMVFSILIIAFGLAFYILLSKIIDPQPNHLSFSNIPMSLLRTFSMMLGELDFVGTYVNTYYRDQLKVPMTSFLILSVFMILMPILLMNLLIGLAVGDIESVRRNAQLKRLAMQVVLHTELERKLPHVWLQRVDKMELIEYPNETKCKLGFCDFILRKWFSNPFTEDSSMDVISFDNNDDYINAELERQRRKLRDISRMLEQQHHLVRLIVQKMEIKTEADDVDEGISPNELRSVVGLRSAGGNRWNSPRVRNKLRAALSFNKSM

Another test has as its target T4, agTRPA1(A) (Anopheles gambiae, UniProt A0A1S4GN50).
T4 construct: isoform with TRPA1(A)-type N-terminus and exon6a-encoded BAT; cRNA-injected Xenopus laevis oocytes
T4 sequence (A0A1S4GN50 1-1208): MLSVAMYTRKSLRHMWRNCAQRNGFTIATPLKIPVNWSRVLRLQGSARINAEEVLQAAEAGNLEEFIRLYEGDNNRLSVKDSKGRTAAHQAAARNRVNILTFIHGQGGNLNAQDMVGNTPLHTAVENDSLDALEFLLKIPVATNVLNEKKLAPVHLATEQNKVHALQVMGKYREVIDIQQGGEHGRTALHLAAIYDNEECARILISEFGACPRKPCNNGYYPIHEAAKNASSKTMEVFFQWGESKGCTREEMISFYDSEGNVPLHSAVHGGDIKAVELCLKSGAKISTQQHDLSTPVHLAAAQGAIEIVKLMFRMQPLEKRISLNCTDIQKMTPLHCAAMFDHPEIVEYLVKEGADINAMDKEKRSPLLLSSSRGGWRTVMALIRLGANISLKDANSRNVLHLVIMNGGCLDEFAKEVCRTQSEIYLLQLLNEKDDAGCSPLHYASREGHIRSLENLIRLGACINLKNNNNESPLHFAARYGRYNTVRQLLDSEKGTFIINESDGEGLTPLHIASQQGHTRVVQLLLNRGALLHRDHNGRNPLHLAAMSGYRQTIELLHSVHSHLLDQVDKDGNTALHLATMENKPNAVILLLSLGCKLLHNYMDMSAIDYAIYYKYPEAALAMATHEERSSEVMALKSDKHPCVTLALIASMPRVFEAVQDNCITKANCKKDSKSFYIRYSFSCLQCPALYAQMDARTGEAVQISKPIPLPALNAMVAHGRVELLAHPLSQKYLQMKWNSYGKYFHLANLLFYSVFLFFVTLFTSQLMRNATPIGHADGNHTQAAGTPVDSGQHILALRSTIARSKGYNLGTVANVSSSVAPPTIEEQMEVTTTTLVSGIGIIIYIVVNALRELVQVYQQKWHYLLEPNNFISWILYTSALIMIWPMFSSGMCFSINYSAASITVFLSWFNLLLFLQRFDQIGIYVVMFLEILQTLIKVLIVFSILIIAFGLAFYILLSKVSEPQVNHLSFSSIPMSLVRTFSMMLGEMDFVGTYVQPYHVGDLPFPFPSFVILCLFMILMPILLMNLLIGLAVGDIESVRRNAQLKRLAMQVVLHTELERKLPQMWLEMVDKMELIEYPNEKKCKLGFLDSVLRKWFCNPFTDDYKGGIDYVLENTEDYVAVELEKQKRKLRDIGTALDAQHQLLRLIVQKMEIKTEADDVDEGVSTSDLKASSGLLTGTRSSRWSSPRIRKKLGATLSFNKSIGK

T2 sequence (O75762 whole entry): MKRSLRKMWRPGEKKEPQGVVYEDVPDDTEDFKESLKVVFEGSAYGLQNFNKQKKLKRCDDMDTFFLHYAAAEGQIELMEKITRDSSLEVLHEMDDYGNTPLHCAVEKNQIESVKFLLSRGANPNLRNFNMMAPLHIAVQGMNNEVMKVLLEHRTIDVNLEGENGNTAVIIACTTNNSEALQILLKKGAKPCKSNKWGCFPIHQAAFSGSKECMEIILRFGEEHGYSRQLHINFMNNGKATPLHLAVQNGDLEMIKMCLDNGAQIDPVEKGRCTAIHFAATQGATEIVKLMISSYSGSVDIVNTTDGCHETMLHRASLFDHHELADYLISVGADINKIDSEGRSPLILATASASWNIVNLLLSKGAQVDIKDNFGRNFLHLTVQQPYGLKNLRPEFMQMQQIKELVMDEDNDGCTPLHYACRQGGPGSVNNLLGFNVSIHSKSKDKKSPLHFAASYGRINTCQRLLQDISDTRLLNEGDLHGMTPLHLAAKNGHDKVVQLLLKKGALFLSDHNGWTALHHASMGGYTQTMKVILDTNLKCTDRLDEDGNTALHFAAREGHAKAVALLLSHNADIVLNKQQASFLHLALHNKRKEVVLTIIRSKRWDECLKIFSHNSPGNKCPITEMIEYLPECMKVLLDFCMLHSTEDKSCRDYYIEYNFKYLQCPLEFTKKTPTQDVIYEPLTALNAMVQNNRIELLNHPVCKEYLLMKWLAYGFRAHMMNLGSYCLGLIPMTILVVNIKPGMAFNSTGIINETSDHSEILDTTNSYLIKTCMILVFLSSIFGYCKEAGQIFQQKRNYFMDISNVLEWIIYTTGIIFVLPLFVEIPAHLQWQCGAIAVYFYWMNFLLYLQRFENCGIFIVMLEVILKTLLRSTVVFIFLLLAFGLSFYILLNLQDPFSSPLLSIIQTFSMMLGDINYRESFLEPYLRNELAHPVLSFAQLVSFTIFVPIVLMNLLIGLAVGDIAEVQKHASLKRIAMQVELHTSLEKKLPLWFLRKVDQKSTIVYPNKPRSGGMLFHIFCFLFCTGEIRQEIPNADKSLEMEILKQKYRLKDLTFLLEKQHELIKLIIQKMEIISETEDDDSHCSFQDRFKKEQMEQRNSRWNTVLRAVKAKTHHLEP

For orientation: EC50 means the midpoint of the concentration-response curve. With `CN1C(=O)C=CC1=O` [N-methyl maleimide], the half-maximal effective concentration (EC50) on agTRPA1(B) was determined as 39.5 ± 1.1 µM; on humTRPA1 it was 5.1 ± 0.5 µM; in test [1], 13.6 ± 0.6 µM; on agTRPA1(A) it was 43.8 ± 3.9 µM.
